What was measured:
[1] = system: HDACs (HeLa cell nuclear extracts); assay: HDAC enzymatic activity, Biomol Color de Lys system; assay type: biochemical
Procedure, shortened: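 HeLa nuclear extract as HDAC source with Color de Lys substrate in 50 mM Tris/Cl pH 8.0, 137 mM NaCl, 2.7 mM KCl, 1 mM MgCl2. Serially diluted compounds reacted 1 h at 25 °C, then developer added; fluorescence (Ex 350–380/Em 440–460) fitted sigmoidally for IC50.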

| Compound | IC50 [1] | melting point |
| --- | --- | --- |
| CN(C)c1ccc(-c2nc(N3CCOCC3)c3sc(CN(C)c4ncc(C(=O)NO)cn4)cc3n2)cc1 [Compound 152, 2-(((2-(4-(dimethylamino)phenyl)-4-morpholinothieno[3,2-d]pyrimidin-6-yl)methyl)(methyl)amino)-N-hydroxypyrimidine-5-carboxamide] | < 100 nM | 208 to 210 °C |
| CCNc1ccc(-c2nc(N3CCOCC3)c3sc(CN(C)c4ncc(C(=O)NO)cn4)cc3n2)cc1 [Compound 153, 2-(((2-(4-(ethylamino)phenyl)-4-morpholinothieno[3,2-d]pyrimidin-6-yl)methyl)(methyl)amino)-N-hydroxypyrimidine-5-carboxamide] | < 100 nM | 185 to 187 °C |
| CCN(CC)c1ccc(-c2nc(N3CCOCC3)c3sc(CN(C)c4ncc(C(=O)NO)cn4)cc3n2)cc1 [Compound 154, 2-(((2-(4-(Diethylamino)phenyl)-4-morpholinothieno[3,2-d]pyrimidin-6-yl)methyl)(methyl)amino)-N-hydroxypyrimidine-5-carboxamide] | < 100 nM | 192 to 196 °C |
| CN(Cc1cc2nc(-c3ccc(N4CCCC4)cc3)nc(N3CCOCC3)c2s1)c1ncc(C(=O)NO)cn1 [Compound 155, N-hydroxy-2-(methyl((4-morpholino-2-(4-(pyrrolidin-1-yl)phenyl)thieno[3,2-d]pyrimidin-6-yl)methyl)amino)pyrimidine-5-carboxamide] | < 100 nM | 187 to 192 °C |
| CN(Cc1cc2nc(-c3ccc(N)c(N)c3)nc(N3CCOCC3)c2s1)c1ncc(C(=O)NO)cn1 [Compound 156, 2-(((2-(3,4-diaminophenyl)-4-morpholinothieno[3,2-d]pyrimidin-6-yl)methyl)(methyl)amino)-N-hydroxypyrimidine-5-carboxamide] | < 100 nM | 222 to 225 °C |
| CN(Cc1cc2nc(-c3cccc4[nH]ncc34)nc(Nc3ccccc3)c2s1)c1ncc(C(=O)NO)cn1 [Compound 164, 2-(((2-(1H-indazol-4-yl)-4-(phenylamino)thieno[3,2-d]pyrimidin-6-yl)methyl)(methyl)amino)-N-hydroxypyrimidine-5-carboxamide] | < 100 nM | 232 to 235 °C |
| CN(Cc1cc2nc(-c3cccc4[nH]ncc34)nc(Nc3ccccn3)c2s1)c1ncc(C(=O)NO)cn1 [Compound 168, 2-(((2-(1H-indazol-4-yl)-4-(pyridin-2-ylamino)thieno[3,2-d]pyrimidin-6-yl)methyl)(methyl)amino)-N-hydroxypyrimidine-5-carboxamide] | < 100 nM | 200 to 203 °C |
| CN(Cc1cc2nc(-c3cccc4[nH]ccc34)nc(N3CCOCC3)c2s1)c1ncc(C(=O)NO)cn1 [Compound 176, 2-(((2-(1H-indol-4-yl)-4-morpholinothieno[3,2-d]pyrimidin-6-yl)methyl)(methyl)amino)-N-hydroxypyrimidine-5-carboxamide] | < 100 nM | 200 to 212 °C |
| CN(Cc1cc2nc(-c3cccc4c3CCN4)nc(N3CCOCC3)c2s1)c1ncc(C(=O)NO)cn1 [Compound 177, N-hydroxy-2-(((2-(indolin-4-yl)-4-morpholinothieno[3,2-d]pyrimidin-6-yl)methyl)(methyl)amino)pyrimidine-5-carboxamide] | < 100 nM | 146 to 156 °C |
| CN(Cc1cc2nc(-c3ccc4c(c3)NCCO4)nc(N3CCOCC3)c2s1)c1ncc(C(=O)NO)cn1 [Compound 182, 2-(((2-(3,4-dihydro-2H-benzo[b][1,4]oxazin-6-yl)-4-morpholinothieno[3,2-d]pyrimidin-6-yl)methyl)(methyl)amino)-N-hydroxypyrimidine-5-carboxamide] | < 100 nM | 170 to 183 °C |
| CN(Cc1cc2nc(-c3ccc4[nH]c(=O)[nH]c4c3)nc(N3CCOCC3)c2s1)c1ncc(C(=O)NO)cn1 [Compound 186, N-hydroxy-2-(methyl((4-morpholino-2-(2-oxo-2,3-dihydro-1H-benzo[d]imidazol-5-yl)thieno[3,2-d]pyrimidin-6-yl)methyl)amino)pyrimidine-5-carboxamide] | < 100 nM | 272 to 275 °C |
| CN(Cc1cc2nc(-c3ccc4[nH]cnc4c3)nc(N3CCOCC3)c2s1)c1ncc(C(=O)NO)cn1 [Compound 187, 2-(((2-(1H-benzo[d]imidazol-5-yl)-4-morpholinothieno[3,2-d]pyrimidin-6-yl)methyl)(methyl)amino)-N-hydroxypyrimidine-5-carboxamide] | < 100 nM | 231 to 239 °C |
| CN(Cc1cc2nc(-c3ccc4c(c3)CC(=O)N4)nc(N3CCOCC3)c2s1)c1ncc(C(=O)NO)cn1 [Compound 194, N-hydroxy-2-(methyl((4-morpholino-2-(2-oxoindolin-5-yl)thieno[3,2-d]pyrimidin-6-yl)methyl)amino)pyrimidine-5-carboxamide] | < 100 nM | 270 °C (dec.) |
| CN(Cc1cc2nc(-c3cn[nH]c3)nc(N3CCOCC3)c2s1)c1ncc(C(=O)NO)cn1 [Compound 196, N-hydroxy-2-(methyl((4-morpholino-2-(1H-pyrazol-4-yl)thieno[3,2-d]pyrimidin-6-yl)methyl)amino)pyrimidine-5-carboxamide] | < 100 nM | 214 to 217 °C |
| CN(Cc1cc2nc(-c3cc[nH]c3)nc(N3CCOCC3)c2s1)c1ncc(C(=O)NO)cn1 [Compound 197, N-hydroxy-2-(methyl((4-morpholino-2-(1H-pyrrol-3-yl)thieno[3,2-d]pyrimidin-6-yl)methyl)amino)pyrimidine-5-carboxamide] | < 100 nM | 175 to 189 °C |
| Cc1nc2ccc(-c3nc(N4CCOCC4)c4sc(CN(C)c5ncc(C(=O)NO)cn5)cc4n3)cc2[nH]1 [Compound 199, N-hydroxy-2-(methyl((2-(2-methyl-3H-benzo[d]imidazol-5-yl)-4-morpholinothieno[3,2-d]pyrimidin-6-yl)methyl)amino)pyrimidine-5-carboxamide] | < 100 nM | 230 to 233 °C |
| CN(Cc1cc2nc(-c3ccc(F)cc3)nc(N3CCOCC3)c2s1)c1ncc(C(=O)NO)cn1 [Compound 200, 2-(((2-(4-fluorophenyl)-4-morpholinothieno[3,2-d]pyrimidin-6-yl)methyl)(methyl)amino)-N-hydroxypyrimidine-5-carboxamide] | < 100 nM | 168 to 170 °C |
| Cc1ccc(-c2nc(N3CCOCC3)c3sc(CN(C)c4ncc(C(=O)NO)cn4)cc3n2)cc1 [Compound 201, N-hydroxy-2-(methyl((4-morpholino-2-p-tolylthieno[3,2-d]pyrimidin-6-yl)methyl)amino)pyrimidine-5-carboxamide] | < 100 nM | 170 to 172 °C |
| CN(Cc1cc2nc(-c3ccc(C(F)(F)F)cc3)nc(N3CCOCC3)c2s1)c1ncc(C(=O)NO)cn1 [Compound 202, N-hydroxy-2-(methyl((4-morpholino-2-(4-(trifluoromethyl)phenyl)thieno[3,2-d]pyrimidin-6-yl)methyl)amino)pyrimidine-5-carboxamide] | < 100 nM | 222 to 223 °C |
| Nc1ccc(-c2nc(N3CCOCC3)c3sc(CNc4ncc(C(=O)NO)cn4)cc3n2)cc1 [Compound 211, 2-((2-(4-aminophenyl)-4-morpholinothieno[3,2-d]pyrimidin-6-yl)methylamino)-N-hydroxypyrimidine-5-carboxamide] | < 100 nM | 217 to 223 °C |
| Nc1ncc(-c2nc(N3CCOCC3)c3sc(NS(=O)(=O)c4ccc(/C=C/C(=O)NO)cc4)cc3n2)cn1 [Compound 217, (E)-3-(4-(N-(2-(2-aminopyrimidin-5-yl)-4-morpholinothieno[3,2-d]pyrimidin-6-yl)sulfamoyl)phenyl)-N-hydroxyacrylamide] | < 100 nM | > 300 °C |
| Nc1ncc(-c2nc(N3CCOCC3)c3sc(NS(=O)(=O)c4cccc(/C=C/C(=O)NO)c4)cc3n2)cn1 [Compound 218, (E)-3-(3-(N-(2-(2-aminopyrimidin-5-yl)-4-morpholinothieno[3,2-d]pyrimidin-6-yl)sulfamoyl)phenyl)-N-hydroxyacrylamide] | < 100 nM | > 300 °C |
| COc1ccc(-c2nc(N3CCOCC3)c3sc(NS(=O)(=O)c4cccc(/C=C/C(=O)NO)c4)cc3n2)cn1 [Compound 221, (E)-N-hydroxy-3-(3-(N-(2-(6-methoxypyridin-3-yl)-4-morpholinothieno[3,2-d]pyrimidin-6-yl)sulfamoyl)phenyl)acrylamide] | < 100 nM | > 300 °C |
| COc1ccc(-c2nc(N3CCOCC3)c3sc(NS(=O)(=O)c4ccc(/C=C/C(=O)NO)cc4)cc3n2)cn1 [Compound 222, N-Hydroxy-3-{4-[2-(6-methoxy-pyridin-3-yl)-4-morpholin-4-yl-thieno[3,2-d]pyrimidin-6-ylsulfamoyl]-phenyl}-acrylamide] | < 100 nM | > 300 °C |
| Nc1ncc(-c2nc(N3CCOCC3)c3sc(NCCCC(=O)NO)cc3n2)cn1 [Compound 225, 4-(2-(2-aminopyrimidin-5-yl)-4-morpholinothieno[3,2-d]pyrimidin-6-ylamino)-N-hydroxybutanamide] | 1000 to 10000 nM | 220 to 230 °C |
| Nc1ncc(-c2nc(N3CCOCC3)c3sc(NCCCCC(=O)NO)cc3n2)cn1 [Compound 226] | < 100 nM | 175 to 180 °C |
| CNc1ncc(-c2nc(N3CCOCC3)c3sc(NCCCCC(=O)NO)cc3n2)cn1 [Compound 227, N-Hydroxy-5-(2-(2-(methylamino)pyrimidin-5-yl)-4-morpholinothieno[3,2-d]pyrimidin-6-ylamino)pentanamide] | < 100 nM | 206 to 210 °C |
| Cc1ncc(-c2nc(N3CCOCC3)c3sc(NCCCCC(=O)NO)cc3n2)cn1 [Compound 229, N-Hydroxy-5-(2-(2-methylpyrimidin-5-yl)-4-morpholinothieno[3,2-d]pyrimidin-6-ylamino)pentanamide] | < 100 nM | 248 to 252 °C |
